These results are taken from paper PMC8616928, “Versatile selective evolutionary pressure using synthetic defect in universal metabolism” (Nature Communications, 2021).

The target in data set [1] is T1, MsIRED (Myxococcus stipitatus, UniProt L7U9F5, N32D/R33V/T34R/K37R).
T1 construct: gene MYSTI_01767
In words: NADH absorbance, initial rates, Michaelis-Menten with substrate inhibition. To be noted: NADH saturating, pH 7.4, 37 °C; substrate inhibition constant. The data set is classed as biochemical.

For data set [2], the target named is T2, MsIRED (Myxococcus stipitatus, UniProt L7U9F5, N32E/R33Y/T34E/K37R/L67I/T71V).
T2 construct: gene MYSTI_01767
Described as above. The data set is classed as biochemical. To be noted: NADH saturating, pH 7.4, 37 °C; substrate inhibition constant.

For another data set, the target named is T3, TADH (Thermus sp. ATN1, UniProt B2ZRE3).
T3 construct: full length, untagged, expressed from pUC19 in E. coli strain AL
T3 sequence (B2ZRE3 1-347): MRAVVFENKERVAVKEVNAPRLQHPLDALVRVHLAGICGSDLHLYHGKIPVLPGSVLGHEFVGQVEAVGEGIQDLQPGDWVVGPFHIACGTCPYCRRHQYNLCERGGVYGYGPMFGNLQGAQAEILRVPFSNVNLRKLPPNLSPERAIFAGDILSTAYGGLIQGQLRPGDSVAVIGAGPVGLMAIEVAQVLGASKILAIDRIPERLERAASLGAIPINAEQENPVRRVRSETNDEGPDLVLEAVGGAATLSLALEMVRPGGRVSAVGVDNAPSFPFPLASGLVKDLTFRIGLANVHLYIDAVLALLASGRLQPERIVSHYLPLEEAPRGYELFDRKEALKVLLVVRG
In words: anaerobic growth rescue of E. coli AL and 1H-NMR of broth. The data set is classed as cell-based. Conditions: whole cells, NADH regenerated by glycolysis.

The target of data set [3] is T4, EntNfsB (Enterobacter cloacae, UniProt Q01234).
T4 construct: gene nfsB; full length, C-terminal His6 (pUC19), E. coli BL21(DE3), FMN holoprotein
T4 sequence (Q01234 1-217): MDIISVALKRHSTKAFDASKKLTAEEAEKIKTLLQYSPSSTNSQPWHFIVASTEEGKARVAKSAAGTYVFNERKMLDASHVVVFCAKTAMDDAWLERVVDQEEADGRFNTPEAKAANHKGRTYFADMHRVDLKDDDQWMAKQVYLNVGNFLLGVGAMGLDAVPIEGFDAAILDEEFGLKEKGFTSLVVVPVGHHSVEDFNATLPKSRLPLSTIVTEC
As to the kind of experiment: NADH absorbance, initial rates, anaerobic. The data set is classed as biochemical. To be noted: pH 7.4, 37 °C, activity too low for kinetic parameters.

Data set [4] deals with T5, EntNfsB (Enterobacter cloacae, UniProt Q01234, T41L/Y68L/F124L).
T5 construct: gene nfsB
To be noted: pH 7.4, 37 °C, saturating cofactor, anaerobic.

The target in a further data set is T6, BDHA (Bacillus subtilis, UniProt O34788).
T6 construct: full length, untagged, expressed from pUC19 in E. coli strain AL
T6 sequence (O34788 1-346): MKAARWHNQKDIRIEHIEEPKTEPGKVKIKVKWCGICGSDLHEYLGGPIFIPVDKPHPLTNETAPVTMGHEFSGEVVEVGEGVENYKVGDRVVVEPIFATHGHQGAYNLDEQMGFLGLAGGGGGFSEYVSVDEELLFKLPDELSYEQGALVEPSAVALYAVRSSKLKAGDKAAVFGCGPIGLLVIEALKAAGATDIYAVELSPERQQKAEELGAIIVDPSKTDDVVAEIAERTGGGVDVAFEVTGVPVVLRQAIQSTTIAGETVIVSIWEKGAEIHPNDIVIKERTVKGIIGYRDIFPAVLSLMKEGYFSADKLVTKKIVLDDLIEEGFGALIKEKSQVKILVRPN
As to the kind of experiment: anaerobic growth rescue of E. coli AL and 1H-NMR of broth. Format: cell-based. Conditions: whole cells; endogenous acetoin reductase background.

Another data set has as its target T7, BUDC (Klebsiella pneumoniae, UniProt Q48436).
T7 construct: full length, untagged, expressed from pUC19 in E. coli strain AL
Described as above. Format: cell-based. To be noted: whole cells; endogenous acetoin reductase background.

The target of another data set is T8, CBADH (Clostridium beijerinckii, UniProt P25984).
T8 construct: gene adh
T8 sequence (P25984 1-351): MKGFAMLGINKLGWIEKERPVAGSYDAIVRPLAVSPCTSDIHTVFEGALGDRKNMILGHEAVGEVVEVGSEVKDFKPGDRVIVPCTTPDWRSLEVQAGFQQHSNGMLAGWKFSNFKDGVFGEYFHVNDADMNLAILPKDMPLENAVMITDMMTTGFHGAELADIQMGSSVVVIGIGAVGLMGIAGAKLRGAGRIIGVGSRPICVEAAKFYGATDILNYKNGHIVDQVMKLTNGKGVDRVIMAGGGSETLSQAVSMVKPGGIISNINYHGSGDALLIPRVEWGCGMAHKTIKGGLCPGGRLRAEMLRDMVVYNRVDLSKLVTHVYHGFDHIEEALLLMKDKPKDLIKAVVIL
In words: NAD(P)H absorbance, initial rates. The data set is classed as biochemical. To be noted: NADP+, pH 8.8, 37 °C.

Substrate in data set [5]: O=C(O)c1ccc([N+](=O)[O-])cc1
As to the kind of experiment: NADH absorbance, initial rates, anaerobic, Michaelis-Menten fit. Format: biochemical, Enterobacter cloacae. Conditions: pH 7.4, 37 °C, saturating cofactor.

Substrate in data set [6]: CC1=NCCC1
As to the kind of experiment: NADH absorbance, initial rates, Michaelis-Menten with substrate inhibition. Format: biochemical, Myxococcus stipitatus. To be noted: NADH saturating, pH 7.4, 37 °C.

T7 sequence (Q48436 whole entry): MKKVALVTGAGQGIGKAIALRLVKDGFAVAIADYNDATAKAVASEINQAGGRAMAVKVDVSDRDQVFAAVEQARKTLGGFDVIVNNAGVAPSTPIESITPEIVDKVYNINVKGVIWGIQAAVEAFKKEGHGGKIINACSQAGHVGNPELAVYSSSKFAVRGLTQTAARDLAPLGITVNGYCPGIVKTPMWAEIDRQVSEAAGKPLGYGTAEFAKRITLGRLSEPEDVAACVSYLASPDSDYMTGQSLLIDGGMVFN

Turning to `CC1=NCCC1` [2-methyl-1-pyrroline], the Ki on MsIRED [1] worked out at 11.42 mM; at MsIRED [2], 4.94 mM.
With `CC1CCCC(=O)C1` (stereo not drawn) [3-methylcyclohexanone], the “anaerobic growth rescue of E. coli AL and 1H-NMR of broth” value (“anaerobic growth rescue” below) on TADH was “acetoin for BDHA and BUDC, and cyclohexanone or 3-methylcyclohexanone for TADH”.
Usually Km stands for the substrate concentration at which the rate is half of its maximum. `O=[N+]([O-])c1ccc(CO)cc1` [4-nitrobenzyl alcohol]: the “NADH absorbance, initial rates, anaerobic” value on EntNfsB [3] is “it was able to reduce 4-NBA and 4-NBALC but not 2-NBA”. In addition, the Km at EntNfsB [4] is 1110 µM.
For `CC(=O)C(C)O` (stereo not drawn) [acetoin], the “anaerobic growth rescue” value was “acetoin for BDHA and BUDC, and cyclohexanone or 3-methylcyclohexanone for TADH” at BDHA; “acetoin for BDHA and BUDC, and cyclohexanone or 3-methylcyclohexanone for TADH” at BUDC.
As for `O=C1CCCCC1` [cyclohexanone], the “anaerobic growth rescue” value on TADH is “acetoin for BDHA and BUDC, and cyclohexanone or 3-methylcyclohexanone for TADH”.
As to `CC(C)O` [isopropanol], the “NAD(P)H absorbance, initial rates” value at CBADH was “Unlike the parent enzyme CBADHWT, purified CBADHS was unable to oxidize isopropanol using oxidized NADP”.

B1: EntNfsB (Enterobacter cloacae) (protein)
chain: MDIISVALKRHSTKAFDASKKLTAEEAEKIKTLLQYSPSSTNSQPWHFIVASTEEGKARVAKSAAGTYVFNERKMLDASHVVVFCAKTAMDDAWLERVVDQEEADGRFNTPEAKAANHKGRTYFADMHRVDLKDDDQWMAKQVYLNVGNFLLGVGAMGLDAVPIEGFDAAILDEEFGLKEKGFTSLVVVPVGHHSVEDFNATLPKSRLPLSTIVTEC
notes: full length, C-terminal His6 (pUC19), E. coli BL21(DE3), FMN holoprotein
The kcat is the number of substrate molecules converted per active site and unit of time at saturation. Take B1: in data set [5], the Michaelis constant (Km) worked out at 141 ± 22 µM and the turnover number (kcat) was determined as 0.762 ± 0.0383 s⁻¹.

B2: MsIRED (Myxococcus stipitatus DSM 14675; K37R/N32D/R33V/T34R) (protein)
chain: MKPTLTVIGAGRMGSALIKAFLQSGYTTTVWDVRKARSEPLAKLGAHLADTVRDAVKRSDIIVVNVLDYDTSDQLLRQDEVTRELRGKLLVQLTSGSPALAREQETWARQHGIDYLDGAIMATPDFIGQAECALLYSGSAALFEKHRAVLNVLGGATSHVGEDVGHASALDSALLFQMWGTLFGTLQALAISRAEGIPLEKTTAFIKLTEPVTQGAVADVLTRVQQNRLTADAQTLASLEAHNVAFQHLLALCEERNIHRGVADAMYSVIREAVKAGHGKDDFAILTRFLK
In the case of B2, in data set [6], the Km turned out to be 19570 µM and the turnover number (kcat) came out at 1.3 s⁻¹.

B3: MsIRED (Myxococcus stipitatus DSM 14675; K37R/L67I/N32E/R33Y/T34E/T71V) (protein)
chain: MKPTLTVIGAGRMGSALIKAFLQSGYTTTVWEYEKARSEPLAKLGAHLADTVRDAVKRSDIIVVNVIDYDVSDQLLRQDEVTRELRGKLLVQLTSGSPALAREQETWARQHGIDYLDGAIMATPDFIGQAECALLYSGSAALFEKHRAVLNVLGGATSHVGEDVGHASALDSALLFQMWGTLFGTLQALAISRAEGIPLEKTTAFIKLTEPVTQGAVADVLTRVQQNRLTADAQTLASLEAHNVAFQHLLALCEERNIHRGVADAMYSVIREAVKAGHGKDDFAILTRFLK
With B3, in data set [6], the Michaelis constant (Km) stood at 34060 µM and the kcat was 2.6862 s⁻¹.
